Values after ≈ are worked out from the molar mass of the structure shown. “Also recorded” adds a separate entry of the source.
How the values were obtained:
HaCaT cells [1] = experiment: Scratch assay in HaCaT; type: cell-based, human
Protocol: Scratch Assay in HaCaT. HaCaT cells (passage 35-40) were seeded at a density of 2×10^4 cells/well in fibronectin-coated 96-well plate in DMEM supplemented with 1% (v/v) penicillin and streptomycin and 10% (v/v) FBS. After 48 h, cells were firstly starved for 15 h in DMEM with 0.5% FBS and then incubated with LL-37 (1 μg/mL), LL-37 AUNPs and AUNPs (200 μg/mL) for 5 h at 37° C. and 5% CO2. All the chemical inhibitors for FPRL1, EGFR, ADAM17 and Purinergic receptor were added into cells 1 hour before and for all the incubation time with LL37, LL37-Au NPs or AuNPs. After treatments, cells were washed twice with PBS to remove non-internalized NPs and a scratch was created with a sterile pipet tip. The detached cells were washed twice with PBS and then plates were re-coated with fibronectin (10 μg/mL in starvation medium) for 1 hour at 37° C. At this point (t=0), the first images were taken on In Cell Microscope 2000 (GE Healthcare) (objective 2×). Then cells were washed and maintained in starvation medium up to 72 h. During this time, cell migration was monitored and more images were taken up to 72 h. Scratch areas were quantified using the AxioVision software (Carl Zeiss). Wound areas were normalized by the initial area (n=8 images). On the other hand, to test the prolonged effect of LL37-Au NPs on HaCaT migration, cells were plated in fibronectin-coated 24-well plate (2×10^5 cells/well), after 48 h cells were starved for 15 h in DMEM with 0.5% FBS and then the scratch was made with a sterile pipet tip. Only after the cells were incubated with LL-37 (1 μg/mL), LL37-Au NPs and AuNPs (15 μg/mL) in starvation medium up to 96 h. During this time, cell migration was monitored and images were taken and scratch area quantified.
In an embodiment, the NP bioactivity was carried out by scratch assay. Keratinocytes (passage 35-40) were seeded at a density of 2×10^4 cells/well in fibronectin-coated 96-well plate in DMEM supplemented with 1% (v/v) penicillin and streptomycin and 10% (v/v) FBS. After 48 h, cells were initially starved for 15 h in DMEM with 0.5% FBS, inactivated with mitomycin (5 μg/mL) for 2 h, and then incubated with LL37 (1 μg/mL), LL37-Au NPs or Au NPs (both at 200 μg/mL) for 5 h at 37° C. and 5% CO2. In case of chemical inhibition, the chemical inhibitors for FPRL1 (WRW4, Calbiochem, 10 μM), EGFR (Erlotinib HCL, OSI-744, Selleck Chemicals, 2 nM), ADAM17 (Marimastat, Sigma, 10 μM), P2X (PPADS, Sigma, 100 μM), for P2X7 (A-740003, Sigma, at a concentration of 500 nM), were added to the cells 1 h before the incubation with LL37 peptide and LL37-Au NPs and then maintained during the assay. […] After the 5 h treatment, cells were washed twice with PBS to remove non-internalized NPs and a scratch was created with a sterile pipette tip. The detached cells were washed twice with PBS and then plates were re-coated with fibronectin (10 μg/mL in starvation medium) for 1 h at 37° C. Cells were washed and maintained in starvation medium up to 72 h. Cell migration was monitored overtime by a in Cell Microscope 2000 (GE Healthcare) (objective 2×). The cells treated with LL37 peptide were cultured with starvation medium containing LL37 for the entire duration of the experiment. Scratch areas were quantified using the AxioVision software (Carl Zeiss). Wound areas were normalized by the initial area (n=6 images). In case of siRNA knock-down studies, on-target plus human ADAM17 siRNA or P2X7R siRNA (both from Dharmacon) were used to silence ADAM17 or P2X7 before performing the scratch assay. Keratinocytes were transfected with 50 nM siRNA using 0.25 μL of Lipofectamine RNAiMAX (Life Technologies) for 24 h in antibiotic-free complete medium before starting the scratch assay. […]

[2] = tested on: Escherichia coli (ATCC 25922); type: cell-based; conditions: 10^5 CFU of E. coli
Protocol: The antimicrobial activity testing may be: Escherichia coli (ATCC 25922) was grown at 37° C. and maintained on LB plates (Luria-Bertani broth with 1.5% agar). […] Aliquots (100 μL) were taken out from the respective suspensions at 2 h intervals and diluted in PBS buffer to give 10^3 bacteria per mL and plated on LB agar plates followed by incubation at 37° C. Colonies were counted after 24 h of incubation. The collected supernatant was tested for antimicrobial activity as described above.

[3] = tested on: chorioallantoic membrane (CAM); experiment: Chorioallantoic membrane (CAM) assay; type: in vivo; conditions: CAM vs vehicle
Protocol: In an embodiment, the evaluation of the pro-angiogenic properties of LL37-Au NPs. […] The formation of new blood vessels is a prerequisite of tissue repair and wound healing. Therefore, it was evaluated the inductive properties of LL37 and LL37-Au NPs on human umbilical vein endothelial cells (HUVECs) to secrete vascular endothelial growth factor (VEGF165) (FIG. 14b). […] Next, the assessment of the pro-angiogenic activity of LL37 and LL37-Au NPs in a chorioallantoic membrane (CAM) assay was made.

HaCaT cells [4] = experiment: Whole-cell patch-clamp recordings of HaCaT cells; type: cell-based, human
Protocol: In an embodiment, the NP bioactivity was carried out as follows: electrophysiological recordings. Whole-cell patch-clamp recordings of HaCaT cells were performed using borosilicate glass patch pipettes with a resistance of 2-5 MΩ and compensating the series resistance by 50-60% with a List EPC-7 amplifier, as described previously^56. The pipettes were filled with (in mM): 135 K-gluconate, 10 CsCl, 0.4 NaH2PO4, 0.73 CaCl2, 1 MgCl2, 1 EGTA, and 14 HEPES (pH 7.4). The external solution contained (mM): 140 NaCl, 3 KCl, 2 CaCl2, 1 MgCl2, 15 HEPES and 10 glucose (pH 7.4). Cells were rapidly perfused as previously described and all experiments were carried out at RT (22-25° C.). The currents were recorded at −70 mV, filtered (2-pole Butterworth filter, −12 dB/octave) and digitized to a personal computer at a sampling rate of 1 kHz for analysis using pCLAMP software (AXON instruments). Charge transfer was calculated by the integration of the area under the current in the first 100 s (Q100) from the beginning of the exposure to Au NPs, LL37 or LL37-Au NPs in the absence or presence of apyrase (darker background; 20 U/mL; Sigma).

`CC[C@H](C)[C@H](NC(=O)[C@H](CCCCN)NC(=O)[C@H](CCC(=O)O)NC(=O)[C@H](CCCCN)NC(=O)[C@H](CO)NC(=O)[C@H](CCCCN)NC(=O)[C@H](CCCNC(=N)N)NC(=O)[C@H](Cc1ccccc1)NC(=O)[C@H](Cc1ccccc1)NC(=O)[C@H](CC(=O)O)NC(=O)CNC(=O)[C@H](CC(C)C)NC(=O)[C@@H](N)CC(C)C)C(=O)NCC(=O)N[C@@H](CCCCN)C(=O)N[C@@H](CCC(=O)O)C(=O)N[C@@H](Cc1ccccc1)C(=O)N[C@@H](CCCCN)C(=O)N[C@@H](CCCNC(=N)N)C(=O)N[C@H](C(=O)N[C@H](C(=O)N[C@@H](CCC(N)=O)C(=O)N[C@@H](CCCNC(=N)N)C(=O)N[C@H](C(=O)N[C@@H](CCCCN)C(=O)N[C@@H](CC(=O)O)C(=O)N[C@@H](Cc1ccccc1)C(=O)N[C@@H](CC(C)C)C(=O)N[C@@H](CCCNC(=N)N)C(=O)N[C@@H](CC(N)=O)C(=O)N[C@@H](CC(C)C)C(=O)N[C@H](C(=O)N1CCC[C@H]1C(=O)N[C@@H](CCCNC(=N)N)C(=O)N[C@H](C(=O)N[C@@H](CCC(=O)O)C(=O)N[C@@H](CO)C(=O)N[C@@H](CS)C(N)=O)[C@@H](C)O)C(C)C)[C@@H](C)CC)C(C)C)[C@@H](C)CC` [LL37] was tested, and the “effect of P2X7 antagonist A-740003 on migration” value (HaCaT cells [1]; A-740003 500 nM) was “inhibited; also recorded: significant decrease”, the “effect of EGFR inhibitor Erlotinib on migration” value (HaCaT cells [1]; Erlotinib 2 nM) was “decreased significantly” and the migration of keratinocytes (HaCaT cells [1]; LL37 1 μg/mL, NPs 200 μg/mL, listed as LL37 peptide) was “induced the migration; also recorded: induce the migratory properties”. The “effect of ADAM inhibitor Marimastat on migration” value (HaCaT cells [1]; Marimastat 10 μM) was “significantly decreased; also recorded: significant decrease”, the “effect of purinergic antagonist PPADS on migration” value (HaCaT cells [1]; PPADS 100 μM) was “inhibited; also recorded: significant decrease” and the “effect of FPRL-1 antagonist WRW4 on migration” value (HaCaT cells [1]; WRW4 10 μM) was “no measurable effect”. The “effect of ADAM17 siRNA knockdown on migration” value (HaCaT cells [1]; siRNA ADAM17) was “decreased the migratory properties; also recorded: reduced migratory effect”, the “effect of P2X7 siRNA knockdown on migration” value (HaCaT cells [1]; siRNA P2X7) was “inhibited; also recorded: reduced migratory effect” and the “minimal inhibition concentration (MIC)” value [2] was 5 mg/L (≈ 1.09 µM). For the same compound, the “pro-angiogenic activity (vessel growth)” value [3] was “induced vessel growth”, the “effect of apyrase on charge transfer / inward current” value (HaCaT cells [4]; apyrase 20 U/mL) was “no decrease” and the inward current (HaCaT cells [4]; holding potential −70 mV) was “elicited an inward current”.
